Drawing on patent publication US10226452B2, “Benzoxazolone derivatives as acid ceramidase inhibitors, and their use as medicaments” (FONDAZIONE ISTITUTO ITALIANO DI TECNOLOGIA, priority 2014, dated 2019), this text covers IC50 and EC50 for ten compounds.

What is called IC50 is the concentration at which inhibition is half-maximal. Lower therefore signals greater potency in that assay. Broadly, the EC50 is the midpoint of the concentration-response curve.

Chain of human (hAC) acid ceramidase (Q13510 22-142): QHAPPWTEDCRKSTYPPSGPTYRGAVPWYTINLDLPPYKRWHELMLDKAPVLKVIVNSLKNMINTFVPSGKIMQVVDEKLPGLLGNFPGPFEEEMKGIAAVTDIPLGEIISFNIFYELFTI
Chain of human (hAC) acid ceramidase (Q13510 143-395): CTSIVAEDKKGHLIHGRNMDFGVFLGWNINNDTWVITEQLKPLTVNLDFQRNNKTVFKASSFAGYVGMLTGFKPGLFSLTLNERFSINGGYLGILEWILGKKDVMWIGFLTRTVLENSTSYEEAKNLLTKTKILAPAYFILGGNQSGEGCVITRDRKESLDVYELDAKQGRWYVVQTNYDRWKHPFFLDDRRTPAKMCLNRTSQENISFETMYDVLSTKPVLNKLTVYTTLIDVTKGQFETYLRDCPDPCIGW

The first experiment concerns the target human (hAC) acid ceramidase (Homo sapiens (Human), UniProt Q13510). Briefly: fluorescent-based in vitro assay on human acid ceramidase. Particulars: hAC-enriched lysosomal lysate from HEK293 cells; fluorogenic probe 5 μM; pH 4.5. The experiment is classed as biochemical. The text has this: To evaluate the potency of the compounds towards acid ceramidase, a fluorescence-based in vitro assay previously described in literature (Bedia C et al., ChemBioChem, 2007, 8, 642-648) was implemented and optimized. This assay is based on a “fluorogenic probe” containing a coumarin group and a sphingoid base moiety (see figure below), which is not fluorescent in itself, but upon enzymatic cleavage by acid ceramidase followed by a chemical transformation liberates the fluorescent molecule umbelliferone (7-hydroxychromen-2-one). By quantifying the generation of umbelliferone using a fluorescence plate-reader, the level of enzymatic activity can be measured, whereby IC50 values of compounds that inhibit this activity can be generated.
Lysosomal lysate, enriched with acid ceramidase, was prepared from a cell line stably expressing human acid ceramidase. In the assay, the fluorogenic probe (or substrate) serves as a ceramide-analogue, which is recognized and hydrolyzed at the amide bond by acid ceramidase from the enriched lysate to yield the fatty acid and coumarinic aminodiol. By treating the solution with sodium periodate (NaIO4), the coumarinic aminodiol is subsequently oxidized into an aldehyde intermediate, which undergoes a β-elimination reaction to release the strongly fluorescent umbelliferone.
A lysosomal human acid ceramidase protein preparation was obtained from HEK293 cells stably expressing acid ceramidase suspended in 20 mM Tris HCl (pH 7.5) with 0.32 M sucrose. The cell solution was sonicated and centrifuged at 800×g for 15 min at 4° C. Supernatants were then centrifuged at 12,000×g for 30 min at 4° C. Pellets were re-suspended in PBS pH 7.4 and subjected to two freeze-thaw cycles at −80° C. The suspension was finally centrifuged at 105,000×g for 1 hour at 4° C. and protein concentration was measured in the supernatant with bicinchinonic-acid based protein assay. This human acid ceramidase-enriched preparation allowed us to further optimize the enzymatic assay and to use smaller amounts of lysate (2 μg/well) and substrate (5 μM).
The assay was performed in Optiplate 96-wells black plates, with each reaction well containing a mixture of 25 mM sodium acetate buffer pH 4.5 and a fixed amount of protein (2 μg) in a volume of 85 μL. After 30 mins of pre-incubation with test compounds (diluted 20× from DMSO stock solutions at different concentrations), the fluorogenic probe was added (diluted 20× from EtOH stock solution, final concentration 5 μM). After incubation for 3 hours at 37° C., the reactions were stopped with 50 μL of methanol and 100 μL of a 2.5 mg/mL NalO4 fresh solution in 100 mM Glycine/NaOH pH 10.6. The plate was incubated at 37° C. for 2 hours in the dark and fluorescence intensities were measured at excitation/emission wavelengths of 360/446 nm. Negative control samples consisted of the same incubation mixture in the absence of protein extracts. The IC50 values or percent of inhibition, at the indicated concentration, of selected compounds described in the invention are reported in Table 2.
The compound `O=C(NCCCCc1ccccc1)n1c(=O)oc2cccc(F)c21` [Example 56, 4-Fluoro-2-oxo-N-(4-phenylbutyl)-1,3-benzoxazole-3-carboxamide] yielded an IC50 of 1 ± 1 nM.

`O=C(NCCCCCCc1ccccc1)n1c(=O)oc2ccccc21` [Example 58, 2-Oxo-N-(6-phenylhexyl)-1,3-benzoxazole-3-carboxamide] registered an IC50 of 99 ± 58 nM.

For `COc1ccc2c(c1)oc(=O)n2C(=O)NCCCCc1ccccc1` [Example 10, 6-Methoxy-2-oxo-N-(4-phenylbutyl)-1,3-benzoxazole-3-carboxamide], half-maximal inhibition (IC50) required 52 ± 9 nM.

As to `O=C(NCCCCc1ccccc1)n1c(=O)oc2ccc(Cl)cc21` [Example 4, 5-Chloro-2-oxo-N-(4-phenylbutyl)-1,3-benzoxazole-3-carboxamide], the IC50 was determined as 9 ± 7 nM. Against the preceding compound, the IC50 is about 5.8-fold lower.

Compound `O=C(NCCCCc1ccccc1)n1c(=O)oc2cccc(-c3ccccc3)c21` [Example 26, 2-Oxo-4-phenyl-N-(4-phenylbutyl)-1,3-benzoxazole-3-carboxamide] came in with a half-maximal inhibitory concentration (IC50) of 0.8 ± 0.1 nM. Against the preceding compound, the IC50 is about 11-fold lower.

`O=C(NCCCCc1ccccc1)n1c(=O)oc2ccc(C(F)(F)F)cc21` [Example 13, 2-Oxo-N-(4-phenylbutyl)-5-(trifluoromethyl)-1,3-benzoxazole-3-carboxamide] displayed an IC50 of 11 ± 5 nM.

As to `O=C(NCCCCc1cccs1)n1c(=O)oc2ccccc21` [Example 44, 2-Oxo-N-[4-(2-thienyl)butyl]-1,3-benzoxazole-3-carboxamide], the IC50 was found to be 99 ± 58 nM. Compared with the last compound, the IC50 is about 9-fold higher.

With `N#Cc1ccc2oc(=O)n(C(=O)NCCCCc3ccccc3)c2c1` [Example 15, 5-Cyano-2-oxo-N-(4-phenylbutyl)-1,3-benzoxazole-3-carboxamide], the IC50 amounted to 11 nM. Compared with the last compound, the IC50 is about 9-fold lower.

`CCCc1ccc(CNC(=O)n2c(=O)oc3ccccc32)cc1` [Example 41, 2-Oxo-N-[(4-propylphenyl)methyl]-1,3-benzoxazole-3-carboxamide] displayed an IC50 of 19 ± 2 nM. Compared with the last compound, the IC50 is about 1.7-fold higher.

In another experiment the test system is SW403 cells. Briefly: cells. Particulars: Homo sapiens, SW-403, read-out: EC50, SW403 cell viability.
Excerpt: Combinatory index calculation of cell viability data analyzed with CompuSyn Software. The resulting combination index (CI) offers quantitative definition for additive effect (CI=1), synergism (CI<1), and antagonism (CI>1) in drug combinations. Results are expressed as mean±s.e.m. (n=8-16) of three independent experiments.
Finally, the CellTiter-Glo® Luminescent Cell Viability Assay can be used to determine the number of viable cells in culture based on quantitation of the ATP present, which signals the presence of metabolically active cells. Briefly, a volume of CellTiter-Glo® Reagent equal to the volume of cell culture medium present in each well is added to 96-well plates after drug treatment. Contents are mixed for 2 minutes on an orbital shaker to induce cell lysis and plate was incubated at room temperature for 10 minutes to stabilize signal before reading luminescence.
The compounds were added to the cultures once every 24 hours over a period of 72 hours and the effects of the combined treatments were evaluated using CompuSyn Software.
Turning to `O=c1[nH]cc(F)c(=O)[nH]1` [Example 5-FU, 5-fluorouracil], the concentration for a half-maximal effect (EC50) came out at 736 nM.
